Assay [1] has as its system AMPA. The assay can be described thus: Receptor binding study, AMPA. Conditions: 1 μM; mean values, n = 2.
The target of assay [2] is β1 (Homo sapiens, UniProt P08588). The assay can be described thus: Receptor binding study, β1. Conditions: mean values, n = 2, read-out: percent inhibition of control specific binding.
Assay [3] relates to CD1 male mice. The assay can be described thus: Effects on spontaneous motor activity in mice. Conditions: for Horizontal activity / Vertical activity: mean ± s.e. It is filed as in vivo. How it is done:
For this study, type CD1 male mice (n=8) were used. The effects of the products under study and of the reference compounds were evaluated using an apparatus consisting of a Plexiglas cage (40 cm×40 cm) surrounded by a series of photocells which monitor the movements of the animals placed inside, connected a computerised system, through which, the signals are collected and later elaborated.
Tests were carried out, after endoperitoneal administration of the products. 15 minutes after treatment, the treated animals, alternating with the controls, were placed inside the cage so as to record their spontaneous movements over a total period of 45 minutes broken down into two observation intervals (15′-45′ and 45′-60′, with respect to the time after treatment).
To examine the possible effects of the compounds studied on motor activity, the following parameters were considered: horizontal activity, vertical activity: total distance.
Except for CGS 21680 (reference compound, described in EP 0 277 917, Ciba-Geigy) which was dissolved in 0.9% NaCl, the products studied were solubilised in DMSO and then diluted in Cremofor EL and 0.9% NaCl (final concentrations: DMSO 15%, Cremofor EL 15%, NaCl 0.9%.

The test system of assay [4] is CD1 mice. The assay is described as follows: Associated L-DOPA and A2a antagonists on Haloperidol-induced catalepsy. It is filed as in vivo. Conditions: ST 1535 1.25 or 2.5 mg/kg per os; L-DOPA 12.5 mg/kg; benserazide 3.12 mg/kg i.p.; Haloperidol 4 mg/kg i.p. As for the experimental part:
For this study, product ST 1535 was used.
CD1 mice, divided into different experimental groups (n=10 per group) were used. All animals were subjected to treatment with Haloperidol (4 mg/kg, i.p.) two hours and 30′ prior to the catalepsy test, carried out according to the method described above.
Later, the animals were subjected to different types of treatment according to their original experimental group (see diagram). All catalepsy evaluations were carried out 2 hours and 30 minutes after Haloperidol treatment.
Haloperidol+ST 1535: ST 1535 2.5 mg/kg, per os, 75′ prior to testing;
Haloperidol+benserazide+L-Dopa: Benserazide 3.12 mg/kg i.p., 90′ prior to testing;
L-DOPA:. 12.5 mg/kg, 60′ prior to testing;
Aloperidol+benserazide+L-Dopa+ST 1535: Benserazide 3.12 mg/kg i.p., 90′ prior to testing;
L-DOPA 12.5 mg/kg, 60′ prior to testing;

Assay [5] deals with 5-HT5A (h) (Homo sapiens, UniProt P47898). The assay is described as follows: Receptor binding study, 5-HT5A. Conditions: mean values, n = 2, read-out: percent inhibition of control specific binding.
In assay [6] the target is 5-HT4 (Homo sapiens, UniProt Q13639). The assay is described as follows: Receptor binding study, 5-HT4. Conditions: mean values, n = 2, read-out: percent inhibition of control specific binding.
Assay [7] deals with D1 (Homo sapiens, UniProt P21728). The assay can be described thus: Receptor binding study, D1. Conditions: mean values, n = 2, read-out: percent inhibition of control specific binding.
In assay [8] the test system is α1(non-selective). The assay is described as follows: Receptor binding study, α1. Conditions: 1 μM; mean values, n = 2.
The target of assay [9] is T1, M5 (Homo sapiens, UniProt P08912).
T1 sequence (P08912 1-532): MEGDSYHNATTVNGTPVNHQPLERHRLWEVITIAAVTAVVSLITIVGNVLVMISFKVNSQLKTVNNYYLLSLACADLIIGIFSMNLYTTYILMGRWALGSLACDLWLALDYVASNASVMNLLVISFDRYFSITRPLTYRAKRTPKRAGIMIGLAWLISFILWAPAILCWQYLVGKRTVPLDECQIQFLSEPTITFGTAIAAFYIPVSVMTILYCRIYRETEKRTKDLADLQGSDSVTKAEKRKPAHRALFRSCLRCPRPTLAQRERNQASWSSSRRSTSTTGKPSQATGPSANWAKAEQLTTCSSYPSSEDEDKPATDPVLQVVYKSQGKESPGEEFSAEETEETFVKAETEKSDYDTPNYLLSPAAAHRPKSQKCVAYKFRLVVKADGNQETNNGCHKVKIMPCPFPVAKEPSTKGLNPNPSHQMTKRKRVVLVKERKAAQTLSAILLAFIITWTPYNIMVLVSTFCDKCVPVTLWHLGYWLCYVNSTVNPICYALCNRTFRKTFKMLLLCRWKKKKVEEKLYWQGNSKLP
The assay is described as follows: Receptor binding study, M5. Conditions: 1 μM; mean values, n = 2; read-out: percent inhibition of control specific binding.

Assay [10] has as its target T2, human A1 subtype adenosine receptor (Homo sapiens, UniProt P30542).
T2 construct: expressed in transfected cells; host or cells: CHO-K1
T2 sequence (P30542 1-326): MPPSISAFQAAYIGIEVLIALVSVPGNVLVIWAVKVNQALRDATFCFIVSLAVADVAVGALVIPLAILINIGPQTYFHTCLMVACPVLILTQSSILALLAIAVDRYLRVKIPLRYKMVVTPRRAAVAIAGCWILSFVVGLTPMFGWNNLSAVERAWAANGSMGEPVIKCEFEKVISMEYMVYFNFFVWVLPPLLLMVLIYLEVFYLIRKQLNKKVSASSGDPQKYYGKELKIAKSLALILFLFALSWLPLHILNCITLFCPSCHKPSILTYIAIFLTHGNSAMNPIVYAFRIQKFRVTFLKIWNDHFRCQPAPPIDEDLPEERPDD
The assay is described as follows: Affinity towards the adenosine A1 receptor ([3H]-DPCPX binding, CHO-K1 membranes). Conditions: read-out: A1 Ki (nM) ± sd.

Assay [11] deals with 5-HT2A (Homo sapiens, UniProt P28223). The assay can be described thus: Receptor binding study, 5-HT2A. Conditions: mean values, n = 2, read-out: percent inhibition of control specific binding.
The subject of assay [12] is GABAa. The assay can be described thus: Receptor binding study, GABAa. Conditions: 1 μM; mean values, n = 2.
The subject of assay [13] is Kainate. The assay is described as follows: Receptor binding study, Kainate. Conditions: 1 μM; mean values, n = 2.
In assay [14] the target is human A2a receptor (Homo sapiens, UniProt P29274). The assay can be described thus: biochemical.
The target of assay [15] is 5-HT6 (h) (Homo sapiens, UniProt P50406). The assay is described as follows: Receptor binding study, 5-HT6. Conditions: mean values, n = 2, read-out: percent inhibition of control specific binding.
The test system of assay [16] is NMDA. The assay is described as follows: Receptor binding study, NMDA. Conditions: 1 μM; mean values, n = 2.
Where [17] appears, read: 2.5 mg/kg endoperitoneal, interval 15′-45′ from treatment.
Where [18] appears, read: 2.5 mg/kg endoperitoneal, interval 45′-60′ from treatment.
The mark [19] stands for this setting: 5 mg/kg endoperitoneal, interval 15′-45′ from treatment.
Setting [20] is: 5 mg/kg endoperitoneal, interval 45′-60′ from treatment.
[21] abbreviates: 10 mg/kg endoperitoneal, interval 15′-45′ from treatment.
Setting [22] is: 10 mg/kg endoperitoneal, interval 45′-60′ from treatment.
Setting [23] is: 20 mg/kg endoperitoneal, interval 15′-45′ from treatment.
[24] abbreviates: 20 mg/kg endoperitoneal, interval 45′-60′ from treatment.

A word on the inhibition: it is the share of the control response that was lost under treatment. By Ki is commonly meant a dissociation constant, usually derived from enzyme kinetics or from competition with a known ligand.

Sequence of β1 (P08588 whole entry): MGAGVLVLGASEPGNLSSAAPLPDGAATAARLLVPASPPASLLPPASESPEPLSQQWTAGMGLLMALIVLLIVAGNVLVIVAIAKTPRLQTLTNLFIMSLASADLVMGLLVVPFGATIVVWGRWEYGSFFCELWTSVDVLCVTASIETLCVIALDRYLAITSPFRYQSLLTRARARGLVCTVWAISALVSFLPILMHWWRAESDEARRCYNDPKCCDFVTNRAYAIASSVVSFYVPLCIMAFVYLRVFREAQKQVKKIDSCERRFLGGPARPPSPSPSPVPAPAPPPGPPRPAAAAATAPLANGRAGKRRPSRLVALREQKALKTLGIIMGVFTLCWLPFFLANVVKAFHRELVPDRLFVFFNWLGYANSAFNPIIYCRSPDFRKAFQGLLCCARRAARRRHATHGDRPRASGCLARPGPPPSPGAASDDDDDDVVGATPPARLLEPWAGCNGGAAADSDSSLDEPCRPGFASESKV
Sequence of 5-HT2A (P28223 whole entry, species assumed): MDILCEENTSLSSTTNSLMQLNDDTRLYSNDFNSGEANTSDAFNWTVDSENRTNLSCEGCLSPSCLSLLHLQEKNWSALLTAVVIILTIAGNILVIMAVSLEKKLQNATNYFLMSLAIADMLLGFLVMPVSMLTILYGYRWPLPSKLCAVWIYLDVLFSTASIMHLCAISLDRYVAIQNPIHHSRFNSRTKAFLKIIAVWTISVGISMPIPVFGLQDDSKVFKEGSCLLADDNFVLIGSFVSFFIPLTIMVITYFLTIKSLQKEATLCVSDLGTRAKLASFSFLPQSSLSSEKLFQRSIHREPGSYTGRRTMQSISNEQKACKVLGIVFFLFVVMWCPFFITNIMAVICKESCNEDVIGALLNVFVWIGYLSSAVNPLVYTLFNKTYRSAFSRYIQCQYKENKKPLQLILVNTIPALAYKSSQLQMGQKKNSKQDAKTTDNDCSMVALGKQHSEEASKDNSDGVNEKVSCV
Sequence of D1 (P21728 whole entry): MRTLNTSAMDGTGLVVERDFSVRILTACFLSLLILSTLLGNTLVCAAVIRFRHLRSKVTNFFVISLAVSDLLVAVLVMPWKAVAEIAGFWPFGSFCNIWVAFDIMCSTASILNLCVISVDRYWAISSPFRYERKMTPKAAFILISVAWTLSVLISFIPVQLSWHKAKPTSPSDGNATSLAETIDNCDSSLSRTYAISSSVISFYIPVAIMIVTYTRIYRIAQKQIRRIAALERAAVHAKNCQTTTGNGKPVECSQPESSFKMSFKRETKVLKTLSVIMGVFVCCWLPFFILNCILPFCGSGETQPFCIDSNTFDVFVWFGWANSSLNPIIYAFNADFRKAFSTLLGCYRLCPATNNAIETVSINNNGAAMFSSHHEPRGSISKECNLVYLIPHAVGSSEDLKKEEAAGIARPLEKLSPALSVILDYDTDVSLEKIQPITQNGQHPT
Sequence of 5-HT4 (Q13639 whole entry, species assumed): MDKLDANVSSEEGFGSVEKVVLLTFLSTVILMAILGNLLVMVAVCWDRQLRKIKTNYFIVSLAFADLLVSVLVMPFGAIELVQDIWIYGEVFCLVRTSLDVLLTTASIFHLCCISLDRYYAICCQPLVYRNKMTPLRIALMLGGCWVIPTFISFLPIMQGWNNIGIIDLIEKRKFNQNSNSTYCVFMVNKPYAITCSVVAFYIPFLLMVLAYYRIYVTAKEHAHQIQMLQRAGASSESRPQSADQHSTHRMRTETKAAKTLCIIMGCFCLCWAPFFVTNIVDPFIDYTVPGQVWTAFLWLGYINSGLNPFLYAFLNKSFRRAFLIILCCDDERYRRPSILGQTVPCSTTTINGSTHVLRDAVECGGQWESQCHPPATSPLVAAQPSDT
Sequence of 5-HT5A (h) (P47898 whole entry): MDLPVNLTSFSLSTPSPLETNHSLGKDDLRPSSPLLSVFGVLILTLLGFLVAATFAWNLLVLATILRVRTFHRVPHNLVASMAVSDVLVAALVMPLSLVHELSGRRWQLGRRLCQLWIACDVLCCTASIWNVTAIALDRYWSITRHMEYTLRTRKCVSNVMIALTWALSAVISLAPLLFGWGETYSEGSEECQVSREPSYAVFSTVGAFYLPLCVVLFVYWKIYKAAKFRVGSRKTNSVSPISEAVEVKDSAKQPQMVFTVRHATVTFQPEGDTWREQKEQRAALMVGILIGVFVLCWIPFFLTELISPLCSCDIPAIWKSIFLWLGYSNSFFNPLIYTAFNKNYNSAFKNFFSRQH
Sequence of 5-HT6 (h) (P50406 whole entry): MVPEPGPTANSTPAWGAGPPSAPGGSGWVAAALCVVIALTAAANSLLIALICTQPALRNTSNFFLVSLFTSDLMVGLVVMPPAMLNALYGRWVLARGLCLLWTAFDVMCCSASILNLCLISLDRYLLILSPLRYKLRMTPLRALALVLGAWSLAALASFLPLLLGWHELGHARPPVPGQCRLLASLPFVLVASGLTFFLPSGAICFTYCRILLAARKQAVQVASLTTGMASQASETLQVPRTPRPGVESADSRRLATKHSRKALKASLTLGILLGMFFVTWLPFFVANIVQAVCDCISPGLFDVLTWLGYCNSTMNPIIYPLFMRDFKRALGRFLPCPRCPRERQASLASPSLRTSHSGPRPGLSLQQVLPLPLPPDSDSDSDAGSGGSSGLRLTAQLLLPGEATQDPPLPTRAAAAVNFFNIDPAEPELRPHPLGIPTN
Sequence of human A2a receptor (P29274 whole entry): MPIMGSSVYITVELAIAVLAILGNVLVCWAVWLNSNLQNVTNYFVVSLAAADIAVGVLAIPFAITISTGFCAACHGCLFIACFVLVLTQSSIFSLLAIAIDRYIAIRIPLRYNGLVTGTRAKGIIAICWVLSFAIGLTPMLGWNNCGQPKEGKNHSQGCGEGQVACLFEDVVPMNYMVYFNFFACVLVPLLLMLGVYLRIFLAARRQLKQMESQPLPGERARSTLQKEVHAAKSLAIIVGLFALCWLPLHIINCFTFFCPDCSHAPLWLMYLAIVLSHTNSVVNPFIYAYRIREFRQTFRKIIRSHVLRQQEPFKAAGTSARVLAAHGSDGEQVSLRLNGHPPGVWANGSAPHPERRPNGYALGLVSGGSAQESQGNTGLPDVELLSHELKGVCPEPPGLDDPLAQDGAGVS

Take `CCCCc1nc(N)c2nc(-n3nccn3)n(C)c2n1` [ST 1535, 2-butyl-9-methyl-8-(2H-1,2,3-triazol-2-yl)-9H-purine-6-ylamine]: the “percent inhibition of control specific binding” value in assay [1], in [8], in assay [12], in assay [13] and in [16] was “— (The symbol — indicates an inhibition of less than 10%.)” in each case. Also, the inhibition at 1 µM in assay [2], in assay [5], in assay [6], in assay [7], in assay [9] and in [11] was under 10% in each case. Further, the inhibition at 1 µM in assay [15] was under 10%. For the same molecule, the Horizontal activity in [3] (setting [17]) was determined as 5386 ± 505; in assay [3] (setting [18]), 1693 ± 266; in [3] (setting [19]), 7549 ± 508; in assay [3] (setting [20]) it was 2353 ± 199; in assay [3] (setting [21]), 7434 ± 526; in assay [3] (setting [22]) it was 2784 ± 345. Besides, the values for the Horizontal activity in [3] (setting [23]) and in assay [3] (setting [24]) were 10524 ± 670 and 3321 ± 363, respectively. The Vertical activity in [3] (setting [17]) was 282 ± 79; in assay [3] (setting [18]), 68 ± 21; in [3] (setting [19]), 249 ± 41; in assay [3] (setting [20]) it was 76 ± 16; in [3] (setting [21]), 219 ± 64; in assay [3] (setting [22]) it was 71 ± 32. The Vertical activity was found to be 486 ± 84 in assay [3] (setting [23]) and 148 ± 36 in assay [3] (setting [24]). Also, the “dose from which a significant increase of the spontaneous motor activity in mice is observed” value in [3] (endoperitoneal) was at least 5 mg/kg. Further, in assay [4], the “combination with sub threshold dose of L-DOPA plus benserazide on Haloperidol-induced catalepsy (FIG. 4)” value was “potentiates the anticataleptic activity of treatment with ineffective doses of L-DOPA and benserazide”. Besides, the Ki came to 107 ± 40 nM in assay [10] and 2.29 ± 0.58 nM in assay [14].

Take `CCCCCc1nc(N)c2nc(-n3nccn3)n(C)c2n1` [ST 2097, 9-methyl-2-pentyl-8-(2H-1,2,3-triazol-2-yl)-9H-purine-6-ylamine]: the “percent inhibition of control specific binding” value in assay [1], in assay [8], in [12], in assay [13] and in [16] was “— (The symbol — indicates an inhibition of less than 10%.)” throughout. Moreover, the inhibition at 1 µM in assay [2], in assay [5], in [6], in [7], in [9] and in [11] was under 10% each time. In assay [15], the inhibition at 1 µM is under 10%. Further, in assay [10], the Ki amounted to 26.2 ± 6.55 nM.
